In patent publication US20230310427A1, “NEW THERAPEUTIC USE OF RILPIVIRINE” (UNIVERSITY OF SOUTH AUSTRALIA, priority 2020, published 2023):

Tests used:
PC3 cells = test: Cell cycle analysis (flow cytometry); assay type: cell-based; conditions: 48 hour treatment
Description: (§1) The effect of Rilpivirine on cell cycle distribution in different cancer cell lines was evaluated by flow cytometric analysis. Briefly, cells were seeded in 6-well plates at a density of 6 × 10^4 cells/well. All plates were incubated overnight at 37° C. in a 5% CO2 incubator. Following the incubation, the test compounds (Rilpivirine (Ril) and comparators, Alisertib (Ali; a known Aurora A inhibitor) and Etravirine (Etra; 4-[[6-amino-5-bromo-2-[(4-cyanophenyl)amino]-4-pyrimidinyl]oxy]-3,5-dimethylbenzonitrile - a structurally similar NNRTI drug compound sold under the brand name Intelence® (Janssen Therapeutics)) were added to individual wells and the plates were incubated at same condition for 24 h, 48 h or 72 h. Subsequently, the medium was removed from the wells and transferred into fluorescence-activated cell sorting (FACS) tubes. The adherent cells remaining were trypsinised, re-suspended in media and transferred into the FACS tubes. Cells were centrifuged, fixed with cold 70% ethanol for 15 min and pelleted. The pelleted cells were then re-suspended in 200 µL propidium iodide (PI) solution (50 µg/mL propidium iodide, 0.1 mg/mL ribonuclease A, 0.1% sodium citrate, 0.1% triton X-100) and incubated in the dark for 1.5 h at room temperature. Following the incubation, 200 µL PBS was added. Samples were assessed using a flow cytometer (Cytoflex; Beckman Coulter Inc, Brea, CA, United States of America) and data were analysed using the Cytexpert software.

T47D cells = test: Cell cycle analysis (flow cytometry); assay type: cell-based; conditions: 48-hour treatment
Description: as §1

Aurora A kinase = target: T1, Aurora A kinase (Homo sapiens, UniProt O14965); test: Kinase assay; assay type: biochemical; conditions: kinase inhibition profiling (FIG. 2), concentration not given
T1 construct: purchased Promega (ADP-Glo kits) or Reaction Biology Corporation / Eurofins discovery services (external)
T1 sequence (O14965 1-403): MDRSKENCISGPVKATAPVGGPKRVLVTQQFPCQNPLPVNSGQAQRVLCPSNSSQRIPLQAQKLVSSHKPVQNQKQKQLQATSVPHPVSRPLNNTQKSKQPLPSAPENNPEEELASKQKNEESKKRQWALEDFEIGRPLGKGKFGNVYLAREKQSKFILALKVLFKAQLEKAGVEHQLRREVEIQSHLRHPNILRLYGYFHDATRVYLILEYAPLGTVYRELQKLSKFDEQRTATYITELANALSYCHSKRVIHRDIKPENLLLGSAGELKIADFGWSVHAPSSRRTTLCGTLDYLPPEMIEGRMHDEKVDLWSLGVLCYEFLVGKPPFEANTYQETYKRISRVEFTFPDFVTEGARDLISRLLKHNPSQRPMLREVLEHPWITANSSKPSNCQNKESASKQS
Description: (§2) The ability of compounds to inhibit kinases was measured using ADP-Glo^Tm assay kits (Promega, Madison, WI, United States of America) or externally using radioisotope based assays (Reaction Biology Corporation, Malvern, PA, United States of America and Eurofins discovery services, France). The ADP-Glo assay was performed as reported previously (Basnet SK et al., Mol Pharmacol 88(5):935-948, 2015).The assay plate was read for luminescence using Envision multi-label plate reader (PerkinElmer, Waltham, MA, United States of America). Half-maximal inhibition (IC50) values were determined from a plot of percent residual activity versus concentration of test compounds using GraphPad Prism software. Ki values were calculated from IC50 values using the Cheng-Prusoff equation: Ki= IC50/ [1 + ([ATP]/Km ATP)], where [ATP] is the ATP concentration used for the IC50 determination and Km ATP for each kinase is determined from an individual experiment.

Aurora B kinase = target: T2, Aurora B kinase (Homo sapiens, UniProt Q96GD4); test: Kinase assay; assay type: biochemical; conditions: kinase inhibition profiling (FIG. 2), concentration not given
T2 construct: purchased Promega (ADP-Glo kits) or Reaction Biology Corporation / Eurofins discovery services (external)
T2 sequence (Q96GD4 whole entry): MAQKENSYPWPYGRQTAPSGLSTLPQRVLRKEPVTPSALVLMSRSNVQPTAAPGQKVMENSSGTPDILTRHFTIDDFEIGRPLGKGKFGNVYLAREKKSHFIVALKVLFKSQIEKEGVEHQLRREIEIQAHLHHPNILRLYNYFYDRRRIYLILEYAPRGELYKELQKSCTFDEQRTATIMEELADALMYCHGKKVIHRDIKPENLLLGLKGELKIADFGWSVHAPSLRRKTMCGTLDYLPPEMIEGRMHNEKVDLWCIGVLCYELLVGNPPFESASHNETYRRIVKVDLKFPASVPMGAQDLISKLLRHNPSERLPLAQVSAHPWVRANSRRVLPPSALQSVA
Description: as §2

SMILES | cell cycle arrest (PC3 cells; p53 mutant) | cell cycle arrest (T47D cells; p53 mutant) | inhibitory activity against Aurora A (Aurora A kinase) | inhibitory activity against Aurora B (Aurora B kinase) | cell cycle arrest (PC3 cells; 10 µM) | cell cycle arrest (T47D cells; 10 µM)
COc1cc(Nc2ncc3c(n2)-c2ccc(Cl)cc2C(c2c(F)cccc2OC)=NC3)ccc1C(=O)O [Alisertib] | induce G2/M arrest | arrest T47D breast cancer cells in G2/M phase |  |  |  | 
Cc1cc(C#N)cc(C)c1Oc1nc(Nc2ccc(C#N)cc2)nc(N)c1Br [Etravirine, 4-[[6-amino-5-bromo-2-[(4-cyanophenyl)amino]-4-pyrimidinyl]oxy]-3,5-dimethylbenzonitrile] |  |  | no inhibitory activity | no inhibitory activity | did not induce G2/M arrest | no G2/M arrest
